In ChEMBL document CHEMBL1201862, “PubChem BioAssay data set” (2004):
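Values below derive from 48-hour exposures of cells grown in 96-well plates, with endpoints linearly interpolated between the two concentrations bracketing the appropriate inhibition level. The concentration for 50% growth inhibition is given as GI50.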 Activity calls are given as the source filed them. Rule as the data show it: active = GI50 up to about 1.1 µM and inactive = higher.

Columns and labels:
Experiment in all cases: NCI anticancer screen, dose series, 48 h
786-0 = tested on: 786-0
SF-268 = tested on: SF-268
OVCAR-8 = tested on: OVCAR-8
HCT-116 = tested on: HCT-116
K562 = tested on: K562
KM12 = tested on: KM12
SK-MEL-2 = tested on: SK-MEL-2
SF-295 = tested on: SF-295
NCI-H460 = tested on: NCI-H460
EKVX = tested on: EKVX
HOP-62 = tested on: HOP-62
UACC-257 = tested on: UACC-257
HOP-92 = tested on: HOP-92
COLO 205 = tested on: COLO 205
M14 = tested on: M14
MDA-MB-231 = tested on: MDA-MB-231
OVCAR-3 = tested on: OVCAR-3
CCRF-CEM = tested on: CCRF-CEM
TK-10 = tested on: TK-10
SK-MEL-28 = tested on: SK-MEL-28
PC-3 = tested on: PC-3
IGROV-1 = tested on: IGROV-1
HT-29 = tested on: HT-29
RXF 393 = tested on: RXF 393
A498 = tested on: A498
NCI-H23 = tested on: NCI-H23
A549 = tested on: A549
OVCAR-5 = tested on: OVCAR-5
ACHN = tested on: ACHN
NCI/ADR-RES = tested on: NCI/ADR-RES
SW-620 = tested on: SW-620
UACC-62 = tested on: UACC-62
SN12C = tested on: SN12C
RPMI-8226 = tested on: RPMI-8226
BT-549 = tested on: BT-549
LOX IMVI = tested on: LOX IMVI
MDA-N = tested on: MDA-N
SK-OV-3 = tested on: SK-OV-3
HL-60 = tested on: HL-60
UO-31 = tested on: UO-31
U-251 = tested on: U-251
MCF7 = tested on: MCF7
MDA-MB-435 = tested on: MDA-MB-435
SK-MEL-5 = tested on: SK-MEL-5
MOLT-4 = tested on: MOLT-4
OVCAR-4 = tested on: OVCAR-4
HCT-15 = tested on: HCT-15
SNB-19 = tested on: SNB-19
SF-539 = tested on: SF-539
SNB-75 = tested on: SNB-75
Malme-3M = tested on: Malme-3M
DU-145 = tested on: DU-145
NCI-H522 = tested on: NCI-H522
T47D = tested on: T47D
Hs-578T = tested on: Hs-578T
HCC 2998 = tested on: HCC 2998
NCI-H226 = tested on: NCI-H226
CAKI-1 = tested on: CAKI-1

With COc1ccc2nc(NCN3C(=O)c4ccccc4C3=O)sc2c1 the GI50 (786-0) was > 100 µM (inactive), the GI50 (SF-268) was > 100 µM (inactive) and the GI50 (OVCAR-8) was > 100 µM (inactive). The GI50 (HCT-116) was > 100 µM (inactive), the GI50 (K562) was > 100 µM (inactive) and the GI50 (KM12) was > 100 µM (inactive). The GI50 (SK-MEL-2) was > 100 µM (inactive), the GI50 (SF-295) was > 100 µM (inactive) and the GI50 (NCI-H460) was > 100 µM (inactive). For the same compound, the GI50 (EKVX) was > 100 µM (inactive), the GI50 (HOP-62) was > 100 µM (inactive) and the GI50 (UACC-257) was > 100 µM (inactive). For the same compound, the GI50 (HOP-92) was > 100 µM (inactive), the GI50 (COLO 205) was > 100 µM (inactive) and the GI50 (M14) was > 100 µM (inactive). For the same compound, the GI50 (MDA-MB-231) was > 100 µM (inactive), the GI50 (OVCAR-3) was > 100 µM (inactive) and the GI50 (CCRF-CEM) was > 100 µM (inactive). The GI50 (TK-10) was > 100 µM (inactive), the GI50 (SK-MEL-28) was > 100 µM (inactive) and the GI50 (PC-3) was > 100 µM (inactive). For the same compound, the GI50 (IGROV-1) was > 100 µM (inactive), the GI50 (HT-29) was > 100 µM (inactive) and the GI50 (RXF 393) was > 100 µM (inactive). The GI50 (A498) was > 100 µM (inactive), the GI50 (NCI-H23) was > 100 µM (inactive) and the GI50 (A549) was > 100 µM (inactive). For the same compound, the GI50 (OVCAR-5) was > 100 µM (inactive), the GI50 (ACHN) was > 100 µM (inactive) and the GI50 (NCI/ADR-RES) was > 100 µM (inactive). For the same compound, the GI50 (SW-620) was > 100 µM (inactive), the GI50 (UACC-62) was > 100 µM (inactive) and the GI50 (SN12C) was > 100 µM (inactive). The GI50 (RPMI-8226) was > 100 µM (inactive), the GI50 (BT-549) was > 100 µM (inactive) and the GI50 (LOX IMVI) was > 100 µM (inactive). The GI50 (MDA-N) was > 100 µM (inactive), the GI50 (SK-OV-3) was > 100 µM (inactive) and the GI50 (HL-60) was > 100 µM (inactive). The GI50 (UO-31) was > 100 µM (inactive), the GI50 (U-251) was > 100 µM (inactive) and the GI50 (MCF7) was > 100 µM (inactive). For the same compound, the GI50 (MDA-MB-435) was > 100 µM (inactive), the GI50 (SK-MEL-5) was > 100 µM (inactive) and the GI50 (MOLT-4) was > 100 µM (inactive). For the same compound, the GI50 (OVCAR-4) was > 100 µM (inactive), the GI50 (HCT-15) was > 100 µM and the GI50 (SNB-19) was > 100 µM (inactive). The GI50 (SF-539) was > 100 µM (inactive), the GI50 (SNB-75) was > 100 µM (inactive) and the GI50 (Malme-3M) was > 100 µM (inactive). The GI50 (DU-145) was > 100 µM (inactive), the GI50 (NCI-H522) was > 100 µM (inactive) and the GI50 (T47D) was > 100 µM (inactive). For the same compound, the GI50 (Hs-578T) was > 100 µM (inactive).
With O=C(O)/C(O)=C\C(=O)c1ccc(Br)cc1 the GI50 (786-0) was > 100 µM (inactive), the GI50 (SF-268) was > 100 µM (inactive) and the GI50 (OVCAR-8) was > 100 µM (inactive). For the same compound, the GI50 (HCT-116) was > 100 µM (inactive), the GI50 (K562) was > 100 µM (inactive) and the GI50 (KM12) was > 100 µM (inactive). The GI50 (SK-MEL-2) was > 100 µM (inactive), the GI50 (SF-295) was > 100 µM (inactive) and the GI50 (NCI-H460) was > 100 µM (inactive). The GI50 (EKVX) was 2.98 µM (inactive), the GI50 (HCC 2998) was > 100 µM (inactive) and the GI50 (HOP-62) was > 100 µM (inactive). For the same compound, the GI50 (UACC-257) was > 100 µM (inactive), the GI50 (HOP-92) was > 100 µM (inactive) and the GI50 (COLO 205) was > 100 µM (inactive). The GI50 (M14) was > 100 µM (inactive), the GI50 (MDA-MB-231) was > 100 µM (inactive) and the GI50 (OVCAR-3) was > 100 µM (inactive). For the same compound, the GI50 (CCRF-CEM) was 68.7 µM (inactive), the GI50 (TK-10) was > 100 µM (inactive) and the GI50 (SK-MEL-28) was > 100 µM (inactive). For the same compound, the GI50 (PC-3) was > 100 µM (inactive), the GI50 (IGROV-1) was > 100 µM (inactive) and the GI50 (NCI-H226) was > 100 µM (inactive). For the same compound, the GI50 (HT-29) was > 100 µM (inactive), the GI50 (RXF 393) was > 100 µM (inactive) and the GI50 (A498) was > 100 µM (inactive). For the same compound, the GI50 (NCI-H23) was > 100 µM (inactive), the GI50 (A549) was > 100 µM (inactive) and the GI50 (OVCAR-5) was > 100 µM (inactive). For the same compound, the GI50 (ACHN) was > 100 µM (inactive), the GI50 (NCI/ADR-RES) was > 100 µM (inactive) and the GI50 (SW-620) was > 100 µM (inactive). For the same compound, the GI50 (UACC-62) was > 100 µM (inactive), the GI50 (SN12C) was > 100 µM (inactive) and the GI50 (RPMI-8226) was > 100 µM (inactive). For the same compound, the GI50 (BT-549) was > 100 µM (inactive), the GI50 (LOX IMVI) was > 100 µM (inactive) and the GI50 (MDA-N) was > 100 µM (inactive). For the same compound, the GI50 (SK-OV-3) was > 100 µM (inactive), the GI50 (HL-60) was > 100 µM (inactive) and the GI50 (UO-31) was > 100 µM (inactive). The GI50 (CAKI-1) was > 100 µM (inactive), the GI50 (U-251) was > 100 µM (inactive) and the GI50 (MCF7) was > 100 µM (inactive). For the same compound, the GI50 (MDA-MB-435) was > 100 µM (inactive), the GI50 (SK-MEL-5) was > 100 µM (inactive) and the GI50 (MOLT-4) was > 100 µM (inactive). For the same compound, the GI50 (OVCAR-4) was > 100 µM (inactive), the GI50 (HCT-15) was > 100 µM and the GI50 (SNB-19) was > 100 µM (inactive). For the same compound, the GI50 (SNB-75) was > 100 µM (inactive), the GI50 (Malme-3M) was > 100 µM (inactive) and the GI50 (DU-145) was > 100 µM (inactive). The GI50 (NCI-H522) was > 100 µM (inactive), the GI50 (T47D) was > 100 µM (inactive) and the GI50 (Hs-578T) was > 100 µM (inactive).
